Entries after “also recorded” stand apart in the source; their conditions may differ.
B1: PD-L1ip3SC (scrambled analogue of PD-L1ip3) (peptide)
peptide: VLIKIPWLRLPGCGTQ
notes: Negative control in BLI; also called scrambled peptide

Legend:
[1] = molecular target: T1, human PD-L1 (Homo sapiens, UniProt Q9NZQ7); assay: Bio-layer interferometry binding to biotinylated PD-L1; details: read-out: dissociation constant KD
T1 construct: biotin (biotinylated); purchased R&D Systems (Minneapolis, Minnesota)
Procedure: (§1) For each experiment, the BLItz machine was fitted with a fresh streptavidin biosensor tip (FortéBio). All tips were solvated in PBS buffer for 15-30 min before the experiments. The peptide was solvated at a concentration of approximately 1 mg/ml. The precise concentration of this stock solution (0.922 mg/ml) was obtained using the Pierce BCA Protein Assay Kit (Thermo Fisher Scientific) and multiple dilutions were made (corresponding to […]). A solution of biotinylated PD-L1 was applied to the biosensor tip during the loading phase of each experiment. PBS buffer (ix) was used for the baseline.

[2] = test system: CT26 murine colon carcinoma cells; assay: MTT viability of CT26 cells without T cells; format: cell-based, mouse
Procedure: Evaluation of the Effect of PD-L1ip3 Peptide or Gene Transduction by Ad-PD-L1ip3 on Murine Colon Carcinoma Cells in Cell Culture The CT26 murine colon carcinoma cells (1,000 cells/well) were seeded into 96-well plate.
After 24 h, these cells were treated directly with PD-L1ip3 in peptide form (0.1-10 μg/ml) or indirectly with the PD-L1ip3 gene by Ad-PD-L1ip3 transduction (10, 20 and 50 MOI). The growth of the cells was evaluated by MTT assay 24-72 h after the treatments as described previously.
To evaluate therapeutic potential and cytotoxicity of the PD-L1ip3 peptide and transduction by Ad-PD-L1ip3, cell viability of CT26 cells was analyzed using MTT assay in the presence of mIFNγ (25 ng/ml), which was used to increase PD-L1 expression in cancer cells. The scrambled sequence version of PD-L1ip3 (PD-L1ip3SC) and the adenovirus carrying the corresponding scrambled sequence gene (Ad-PD-L1ip3SC) were used as negative controls.

[3] = test system: CT26 murine colon carcinoma cells; assay: T cell-induced death of CT26 cells in co-culture with antigen-primed CD8+ T cells (flow cytometry); format: cell-based, mouse; details: peptide 10 μM, CT26:T cell 1:16
Procedure: a. Generation of CT26 cell antigen-specific CD8^+ T cells in vivo: First, the mice were subcutaneously (SQ) injected with CT26 cell lysate (0.5×10^6 cells/mouse in 200 μl PBS) at Day 0. JAWSII immature dendritic cells and CT26 cells previously irradiated with an X-ray dose of 100 Gy were cocultured at a 1:1 ratio for 48 h with an additional treatment of LPS (1 μg/ml). The cells (0.5×10^6 cells/mouse in 200 μl PBS) were collected and administered IV via tail vein to the mice at Day 7. At Day 21, the splenocytes were harvested and the CT26 antigen-specific CD8^+ T cells were labeled using MojoSort™ Mouse CD8 T Cell Isolation Kit (Biolegend, San Diego, CA) and isolated using magnetic beads-based separation protocol with MACS® Column (Miltenyi Biotec, Bergisch Gladbach, Germany) according to the manufacturer's instructions.
b. Evaluation of T cell-induced death of colon carcinoma cells in co-culture: Permanently GFP-expressing CT26 cells (GFP-CT26) produced by GFP-lentivirus vector transduction were seeded into 12 well-plate (1×10^4 cells/well) in the presence of murine interferon gamma (mIFNγ) at 25 ng/ml for 24 h. […] The effect of PD-L1ip3 in peptide form or gene transduction by Ad-PD-L1ip3 on CT26 cell death was analyzed by flow cytometry using LIVE/DEAD™ Fixable Violet Dead Cell Stain Kit (Invitrogen Corp). […]

[4] = test system: CT26 cell tumors; assay: CT26 subcutaneous allograft tumor growth in Balb/c mice; format: in vivo, mouse
Procedure: The anti-tumor effect of Ad-PD-L1ip3 and PD-L1ip3 in peptide form was evaluated in Balb/c mice using a CT26 murine colon carcinoma allograft model. The CT26 cells were transduced with 100 MOI of Ad-PD-L1ip3 or Ad-PD-L1ip3SC. At 24 h after transduction, the cells were suspended into 0.6% agarose dissolved in RPMI 1640. After filling agarose-cell mixture into 1 ml syringe equipped with 27G needle, it was solidified on ice. Mice were anesthetized with isoflurane and injected subcutaneously into the back with a 5×10^5 CT26 cells in 50 μl cell-agarose mixture. The intraperitoneal administration of PD-L1ip3 peptide (10 mg/kg) was carried out at 1 week after CT26 inoculation for 13 days (every day, totaling 13 injections). The PBS control was injected intraperitoneally with the same schedule. For the pre-immunization study, CT26 lysate (1×10^6 cells/100 μl PBS) were injected subcutaneously, 3 times with 1-week interval. The CT26 lysate was made by 3 times freeze-thaw cycles using liquid nitrogen. The mouse body weights were monitored at 2-day intervals. All mice were sacrificed […] after CT26 inoculation by cervical dislocation after exposure to saturated C02. The tumor size was measured by caliper every 2 days and the volume was calculated using the formula 0.5×(short diameter)^2×(long diameter). The tumors were weighed and fixed in 10% formalin for histological analysis.

[5] = test system: H1299 human non-small cell lung carcinoma cell line; assay: Co-culture of activated Jurkat cells with H1299 lung cancer cells, cell death by flow cytometry; format: cell-based; details: for cell death in H1299 cells: Jurkat co-culture, 48 hours; for increase in cell death in H1299 cells: co-cultured with nonspecifically activated Jurkat cells, preliminary data
Procedure: (§2) • H1299 human non-small cell lung carcinoma cell line (ATCC) • Jurkat cells (Human T lymphoblasts, ATCC) • Primary cultured murine CD8^+ T cell primed with H1299 cell lysate (H1299 cell antigens)
Co-culture assay procedure. Dead cell populations were measured by flow cytometry at 48 hours post-co-culture using propidium iodide (PI) staining.

[6] = test system: H1299 human non-small cell lung carcinoma cell line; assay: Co-culture of H1299 cell antigen-specific T cells with H1299 lung cancer cells, cell death by flow cytometry; format: cell-based; details: for cell death in H1299 cells: antigen-specific T cell co-culture, 48 hours
Excerpt: as §2
Mice were immunized with H1299 cells via tail vein injection. T cells were extracted from spleen, purified, and expanded by co-culturing with dendritic cells (DCs) stimulated with H1299 cell lysate. Expanded T cells were used in co-culture assay.

[7] = test system: murine LLC lung carcinoma cells; assay: Cytotoxicity of antigen-primed CD8+ T cells toward LLC cells in co-culture; format: cell-based, mouse; details: 10 μM, 1:16 ratio, 18 and 36 hrs; positive control anti-PD-L1 antibody
Procedure: Generation of LLC cell antigen primed CD8^+ T cells in vivo: Mice were subcutaneously injected with LLC lysate (0.5×10^6 cells/mouse in 100 μl) at Day 0. X-ray (100 Gy) irradiated LLC cells were cocultured with JAWSII immature dendritic cells (JAWS-irrLLC) at a 1:1 ratio for 48 hrs in the presence of LPS (1 μg/ml). The cells were then intravenously injected into mice via tail vein (0.5×10^4 cells/mouse in 200 μl) at Day 7. At Day 21, the splenocytes were harvested and CD8^+ T cells (AP-CD8^+ T cells) were isolated using commercially available isolation kit.
Evaluation of T cell-induced death of lung carcinoma cells in co-culture: Permanently GFP-expressing LLC cells (1×10^4 cells) were treated with murine IFNγ (25 ng/ml) for 48 hrs. The cells were treated with 10 μM PD-L1ip3. PD-L1ip3SC (10 μM) and mouse anti-PD-L1 antibody (αPD-L1: 0.5 or 1.0 μg/ml) were used as control. The cells were then cocultured with antigen primed CD8^+ T cells 1:16 ratio. The cytotoxicity of AP-CD8^+ T cells toward LLC cells at 18 and 36 hrs after coculture was determined by flow cytometry.

[8] = molecular target: T2, Biotinylated human PD-L1 (R&D Systems) (human, UniProt Q9NZQ7 19-239, limits assumed, biotinylated (site not stated)); assay: bio-layer interferometry (BLItz), biotinylated PD-L1 on streptavidin tip, peptide in solution; negative control; scrambled peptide, negative control
T2 construct: Bought reagent, loaded on a streptavidin biosensor tip for bio-layer interferometry
Procedure: as §1
The peptide was synthesized commercially and the dissociation constant was determined by bio-layer interferometry.

[9] = peptide form 0.1-10 μg/ml, mIFNγ 25 ng/ml, 24-72 h, no T cells

T2 sequence (Q9NZQ7 19-239 limits assumed): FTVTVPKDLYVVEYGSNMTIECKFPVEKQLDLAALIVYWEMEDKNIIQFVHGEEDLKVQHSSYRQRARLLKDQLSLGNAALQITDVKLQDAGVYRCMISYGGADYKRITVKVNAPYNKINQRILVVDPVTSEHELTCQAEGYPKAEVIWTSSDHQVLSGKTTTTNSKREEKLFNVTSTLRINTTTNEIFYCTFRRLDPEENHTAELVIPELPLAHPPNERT

Molecule	Kd [1] [mM]	viability of CT26 cells (MTT) [2, 9]	T cell-induced cell death of CT26 cells vs PBS [3]	average tumor volume ([4]; mice pre-treated with CT26 cell lysate 3 times, Ad 100 MOI, peptide 10 mg/kg/day i.p., untreated 729.6±310.3) [mm^3]	change in tumor growth vs untreated CT26 cells ([4]; no lysate pretreatment)	cell death in H1299 cells [5]	increase in cell death in H1299 cells [5] [%]	cell death in H1299 cells [6]	increase in cell death in H1299 cells ([6]; co-cultured with H1299 cell antigen-primed T lymphocytes) [%]	cytotoxicity of antigen-specific CD8+ T cells toward LLC cells [7]	viability of CT26 cells (MTT) ([2]; 10 μg/ml, 72 h, not significantly different from PBS)	Kd [8] [mM]
H-GTRLKPLIICVQWPGL-OH [PD-L1ip3]	0.033 ± 0.003	not affected	markedly increased	607.5±220.1	nor PD-L1ip3 in peptide form alone showed a statistically significant change in tumor growth	only minor increases of cell death	30	clear increases of cell death	50	Increased; also recorded: as good as or better than the positive control		
H-VLIKIPWLRLPGCGTQ-OH [PD-L1ip3SC, reference compound]		not affected				only minor increases of cell death	30				slight decrease of cell viability	
PLDIRDRVHVEKSAAS [PD-L1ip4]						did not alter T cell-dependent death		did not alter T cell-dependent death				
B1												~50

Source: patent US20250066420A1, “PD-L1 INHIBITORY PEPTIDE FOR CANCER IMMUNOTHERAPY” (Kansas State University Research Foundation, priority 2021, published 2025)
